Earlier results as cited in patent US20050227949A1, “Compositions and methods for treatment of viral and bacterial infections” (priority 2004, published 2005).

Legend:
[1] = test system: herpes simplex; details: previously reported treatment of herpes simplex infections
[2] = test system: HIV; details: previously reported
[3] = test system: suppressor T-cells; details: further reported uses; probably due to blockade of selected suppressor T-cells

CN/C(=N/CCSCc1nc[nH]c1C)NC#N [cimetidine]
outbreak and duration of herpes zoster [1]: effectively reduced outbreak and duration of herpes zoster | treatment result in HIV patients [2]: less encouraging results | immune functions [3]: improvements of various immune functions
